This is an account of results in the OPERA property sets (Mansouri et al. 2018).

Values after ≈ are worked out from the molar mass of the structure shown.

A word on the solubility: it is how much of the substance goes into solution per volume. A lower solubility goes with little dissolved substance. `COC(=O)c1cccc(C(=O)OC)c1` displayed a solubility of 1490 µM (≈ 290 µg/mL). In other words, the millimolar range.

Broadly, the logP is a log measure of how a compound divides between an organic and an aqueous phase. Lower therefore signals a more hydrophilic compound. `Cc1cc(=O)nc(C(C)C)[nH]1` registered a logP of 0.55. The same measure, in the same setting: the figure for `CCNc1cccc2ccccc12` is 3.45. On the same count and under the same terms, the figure for `ClCC(Br)CBr` (configuration not stated) is 2.96. Compound `Cc1ccc(C(C)(C)C)cc1` came in with a logP of 5.17. Still for that read-out and setting: the value for `CC(CCl)OP(=O)(OC(C)CCl)OC(C)CCl` (configuration not stated) was 2.59; that for `CCOC(=O)C(O)(c1ccc(Cl)cc1)c1ccc(Cl)cc1` was 4.74. On the same count and under the same terms, the figure for `CC(C)[N+](=O)[O-]` is 0.93; for `C=CC(=C)C` it is 2.42. Compound `C=CC1CC=CCC1` (configuration not stated) came in with a logP of 3.93. Same read-out and setting: the figure for `Cc1ccc(Cl)c(O)c1` is 2.9. `OC(c1ccccc1)c1ccc(Cl)cc1` (configuration not stated) had a logP of 3.61. On the same count and under the same terms, the value for `S=C(SSSSC(=S)N1CCCCC1)N1CCCCC1` was 2.8; that for `O=P(OCCCl)(OCCCl)OCCCl` was 1.44; that for `ClC(c1ccccc1)(c1ccccc1)c1ccccc1` was 5.25.

Compound `CC(C)=CC=C(C)C` displayed a logP of 3.5. For the compound `ClC(Cl)C(Cl)C(Cl)Cl`, the lipophilicity (logP) is 3.23. Still for that read-out and setting: the value for `CC(C)CCOCCC(C)C` was 4.25; that for `CC(C)(C)c1ccc(O)c(C(C)(C)C)c1` was 5.19. The same measure, in the same setting: the value for `CC(C)(C)c1cc(C(C)(C)C)c(O)c(C(C)(C)C)c1` was 6.06. Still for that read-out and setting: the value for `Nc1cccc2c1C(=O)c1ccccc1C2=O` was 3.74.

For `CCCCOCCOP(=O)(OCCOCCCC)OCCOCCCC`, the logP is 3.75. The logP values of the last two compounds are within 0.2 log units of each other. On the same count and under the same terms, the figure for `COc1c(N)cccc1[N+](=O)[O-]` is 1.78.

For the compound `CCCCC(CC)COC(=O)/C=C/C(=O)OCC(CC)CCCC` (configuration not stated), the solubility was found to be 294 µM (≈ 100 µg/mL).

`CC1CC(C)(C)CC(OOC(C)(C)C)(OOC(C)(C)C)C1` (configuration not stated) showed a logP of 6.53 and a solubility of 1.98 µM (≈ 0.6 µg/mL). Compound `CC=C1CC2C=CC1C2` (configuration not stated) gave a logP of 3.82. `CC(C)C(O)C(C)(C)CO` (configuration not stated) showed a logP of 1.24.

The compound `COc1ccc(N)c([N+](=O)[O-])c1` showed a logP of 1.94. Still for that read-out and setting: the value for `CC(=O)CC(=O)Nc1ccc(-c2ccc(NC(=O)CC(C)=O)c(C)c2)cc1C` was 1.75; that for `CC(C)CN1CCOCC1` was 1.17. For the compound `CC(C)(O)CCCC1=CCC(C=O)CC1` (configuration not stated), the solubility turned out to be 29000 µM (≈ 6100 µg/mL). In other words, the millimolar range. With `BrCC(CBr)(CBr)CBr`, the logP worked out at 3.99. Still for that read-out and setting: the value for `CCCCC(CC)CN1C(=O)C2C(C1=O)C1(C(C)C)C=CC2(C)CC1` (configuration not stated) was 5.96; that for `N#CSCSc1nc2ccccc2s1` was 3.3; that for `COC(=O)c1ccccc1C(=O)c1ccccc1` was 2.7. Take `Oc1c(Cl)cc(Cl)c2ccccc12`: the logP turned out to be 4.23.

`Cc1ccc(C)c(Cc2ccccc2)c1` showed a lipophilicity (logP) of 5.65. Same read-out and setting: the value for `OCc1ccc(Cl)c(Cl)c1` was 2.74. Same read-out and setting: the figure for `C=CCOP(=O)(OCC=C)OCC=C` is 1.76. On the same count and under the same terms, the figure for `C=CC(OC(C)=O)OC(C)=O` is 0.78. Compound `CCN(CC)c1ccc2c(-c3ccccc3C(=O)O)c3ccc(N(CC)CC)cc3[o+]c2c1.[Cl-]` displayed a logP of 1.95. On the same count and under the same terms, the value for `O=[N+]([O-])c1ccc(Cl)cc1C(F)(F)F` was 3.2; that for `C=CC(=C)CCC=C(C)C` was 4.17.

Take `O=P(OC(CCl)CCl)(OC(CCl)CCl)OC(CCl)CCl`: the logP turned out to be 3.65.

As to `N#CCCNCCC#N`, the logP is -1.34. The same measure, in the same setting: the figure for `Nc1ccc2c(c1)C(=O)c1ccccc1C2=O` is 3.31.

With `CC(C)COc1ccc2ccccc2c1`, the solubility is 6.14 µM (≈ 1.23 µg/mL).

As to `CC(C)(OOC(C)(C)c1ccccc1)c1ccccc1`, the logP worked out at 5.5.

`BrC(Br)Br` registered a logP of 2.4. The same measure, in the same setting: the figure for `O=C1CCCCC1C1=CCCCC1` (configuration not stated) is 3.17; for `C=C(C)CC(C)(C)C` it is 4.55; for `Cc1cc(Cc2cc(C)cc(C(C)(C)C)c2O)c(O)c(C(C)(C)C)c1` it is 6.25. The same measure, in the same setting: the figure for `COc1ccc(C(=O)c2ccccc2)c(O)c1` is 3.79. Still for that read-out and setting: the value for `CCC(C)=NO` was 0.63. The compound `ClCCOC(c1ccccc1)c1ccccc1` showed a logP of 4.38. On to `CCCCCC1C(=O)CCC1CC(=O)OC` (configuration not stated), for which the solubility came out at 1240 µM (≈ 280 µg/mL).

For `CCOP(=S)(Oc1ccc([N+](=O)[O-])cc1)c1ccccc1` (configuration not stated), the logP was determined as 4.78. Still for that read-out and setting: the figure for `O=C1CCCCCCCCCCCN1` is 2.92; for `O=C1c2ccccc2C(=O)c2c1ccc1ccccc21` it is 4.4; for `OCC(O)c1ccccc1Cl` (configuration not stated) it is 1.17. `ClCC(Cl)CCl` yielded a logP of 2.27. For `O=C1c2ccccc2-c2cccc3cccc1c23`, the logP was 4.81. `S=C(NC1CCCCC1)NC1CCCCC1`: the lipophilicity (logP) was determined as 3.69. The same measure, in the same setting: the figure for `C=Cc1ccc(CC)cc1` is 4.19; for `CNc1cccc(C)c1` it is 2.19; for `CCc1ccccc1[N+](=O)[O-]` it is 2.58. Same read-out and setting: the value for `Nc1ccc(Cc2ccc(N)c(Cl)c2)cc1Cl` was 3.91; that for `Oc1cc(Cl)ccc1Oc1ccc(Cl)cc1Cl` was 4.76. The same measure, in the same setting: the figure for `CC(C)(C)C(=O)O` is 1.48; for `COc1ccccc1OCC(O)COC(N)=O` (configuration not stated) it is 0.61. Regarding `C=C(C)C(=O)OCC(CC)(COC(=O)C(=C)C)COC(=O)C(=C)C`, the logP was found to be 4.39. Still for that read-out and setting: the figure for `Cc1ccc(O)cc1[N+](=O)[O-]` is 2.18; for `COc1cccc2ccccc12` it is 3.45.

With `CCCCOC(=O)CC(CC(=O)OCCCC)(OC(C)=O)C(=O)OCCCC`, the solubility came to 12.4 µM (≈ 5 µg/mL). For `C=Cc1cccc(CC)c1`, the logP worked out at 4.11. Same read-out and setting: the value for `ClC1C(Br)C(Br)C(Br)C(Br)C1Br` (configuration not stated) was 4.72.
